{"source": "PubChem BioAssay AID248", "about": "(DTP/NCI, 2004)", "test_system": "L1210 leukemia ip in BDF1 mice, survival T/C", "assay": "NCI In Vivo Anticancer Drug Screen. Data for tumor model L1210 Leukemia (intraperitoneal) in B6D2F1 (BDF1) mice", "conditions": "endpoint: mean survival time, vehicle: saline, higher = longer survival", "method_in_brief": "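Transplanted-tumor mice were given test agent; controls received vehicle only. Survival readings from the two groups were divided (treated over control).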", "note": "Where “and” joins values, the source holds several entries; their conditions need not be identical. Equal entries are not always repeated. Toxic doses and inconclusive results are not listed.", "data": [{"smiles": "Nc1nc(N)c2cc(CNc3ccc(C(=O)NC(CC(=O)O)C(=O)O)cc3)ccc2n1", "note": "(centres undefined)", "values": [{"measurement": "T/C", "setting": "dose: 0.07 mg/kg/injection, schedule: Q01DX009 (ip)", "result": "97 % of control and 100 % of control"}, {"measurement": "T/C", "setting": "dose: 0.14 mg/kg/injection, schedule: Q01DX009 (ip)", "result": "110 % of control and 120 % of control"}, {"measurement": "T/C", "setting": "dose: 0.25 mg/kg/injection, schedule: Q01DX009 (sc)", "result": "110 % of control"}, {"measurement": "T/C", "setting": "dose: 0.5 mg/kg/injection, schedule: Q01DX009 (sc)", "result": "120 % of control"}, {"measurement": "T/C", "setting": "dose: 0.56 mg/kg/injection, schedule: Q01DX009 (ip)", "result": "164 % of control"}, {"measurement": "T/C", "setting": "dose: 0.67 mg/kg/injection, schedule: Q01DX009 (ip)", "result": "157 % of control and 189 % of control"}, {"measurement": "T/C", "setting": "dose: 1.0 mg/kg/injection, schedule: Q01DX009 (ip)", "result": "178 % of control"}, {"measurement": "T/C", "setting": "dose: 1.0 mg/kg/injection, schedule: Q01DX009 (sc)", "result": "158 % of control"}, {"measurement": "T/C", "setting": "dose: 1.13 mg/kg/injection, schedule: Q01DX009 (ip)", "result": "153 % of control and 193 % of control and 195 % of control"}, {"measurement": "T/C", "setting": "dose: 1.25 mg/kg/injection, schedule: Q01DX009 (ip)", "result": "173 % of control and 177 % of control"}, {"measurement": "T/C", "setting": "dose: 2.0 mg/kg/injection, schedule: Q01DX001 (ip)", "result": "118 % of control"}, {"measurement": "T/C", "setting": "dose: 2.0 mg/kg/injection, schedule: Q01DX001 (iv)", "result": "117 % of control"}, {"measurement": "T/C", "setting": "dose: 2.0 mg/kg/injection, schedule: Q01DX001 (sc)", "result": "112 % of control"}, {"measurement": "T/C", "setting": "dose: 2.0 mg/kg/injection, schedule: Q01DX009 (ip)", "result": "154 % of control"}, {"measurement": "T/C", "setting": "dose: 2.0 mg/kg/injection, schedule: Q01DX009 (oral)", "result": "110 % of control"}, {"measurement": "T/C", "setting": "dose: 2.0 mg/kg/injection, schedule: Q01DX009 (sc)", "result": "188 % of control"}, {"measurement": "T/C", "setting": "dose: 2.0 mg/kg/injection, schedule: Q08DX002 (ip)", "result": "118 % of control"}, {"measurement": "T/C", "setting": "dose: 2.0 mg/kg/injection, schedule: Q## X008 (ip)", "result": "123 % of control"}, {"measurement": "T/C", "setting": "dose: 2.0 mg/kg/injection, schedule: Q## X024 (ip)", "result": "154 % of control"}, {"measurement": "T/C", "setting": "dose: 2.25 mg/kg/injection, schedule: Q01DX009 (ip)", "result": "174 % of control and 177 % of control"}, {"measurement": "T/C", "setting": "dose: 4.0 mg/kg/injection, schedule: Q01DX001 (ip)", "result": "119 % of control"}, {"measurement": "T/C", "setting": "dose: 4.0 mg/kg/injection, schedule: Q01DX001 (iv)", "result": "119 % of control"}, {"measurement": "T/C", "setting": "dose: 4.0 mg/kg/injection, schedule: Q01DX001 (sc)", "result": "119 % of control"}, {"measurement": "T/C", "setting": "dose: 4.0 mg/kg/injection, schedule: Q01DX009 (oral)", "result": "110 % of control"}, {"measurement": "T/C", "setting": "dose: 4.0 mg/kg/injection, schedule: Q01DX009 (sc)", "result": "120 % of control"}, {"measurement": "T/C", "setting": "dose: 4.0 mg/kg/injection, schedule: Q## X003 (ip)", "result": "152 % of control"}, {"measurement": "T/C", "setting": "dose: 4.0 mg/kg/injection, schedule: Q## X024 (ip)", "result": "185 % of control"}, {"measurement": "T/C", "setting": "dose: 4.5 mg/kg/injection, schedule: Q01DX009 (ip)", "result": "95 % of control and 117 % of control"}, {"measurement": "T/C", "setting": "dose: 5.0 mg/kg/injection, schedule: Q01DX009 (ip)", "result": "96 % of control and 101 % of control and 91 % of control"}, {"measurement": "T/C", "setting": "dose: 8.0 mg/kg/injection, schedule: Q01DX001 (ip)", "result": "123 % of control"}, {"measurement": "T/C", "setting": "dose: 8.0 mg/kg/injection, schedule: Q01DX001 (iv)", "result": "118 % of control"}, {"measurement": "T/C", "setting": "dose: 8.0 mg/kg/injection, schedule: Q01DX009 (oral)", "result": "109 % of control"}, {"measurement": "T/C", "setting": "dose: 8.0 mg/kg/injection, schedule: Q03HX016 (ip)", "result": "150 % of control"}, {"measurement": "T/C", "setting": "dose: 8.0 mg/kg/injection, schedule: Q## X003 (ip)", "result": "158 % of control"}, {"measurement": "T/C", "setting": "dose: 8.0 mg/kg/injection, schedule: Q## X024 (ip)", "result": "194 % of control"}, {"measurement": "T/C", "setting": "dose: 9.0 mg/kg/injection, schedule: Q01DX009 (ip)", "result": "87 % of control and 89 % of control"}, {"measurement": "T/C", "setting": "dose: 10.0 mg/kg/injection, schedule: Q01DX009 (ip)", "result": "89 % of control and 91 % of control"}, {"measurement": "T/C", "setting": "dose: 16.0 mg/kg/injection, schedule: Q01DX001 (iv)", "result": "122 % of control"}, {"measurement": "T/C", "setting": "dose: 16.0 mg/kg/injection, schedule: Q01DX001 (oral)", "result": "102 % of control"}, {"measurement": "T/C", "setting": "dose: 16.0 mg/kg/injection, schedule: Q01DX009 (oral)", "result": "112 % of control"}, {"measurement": "T/C", "setting": "dose: 16.0 mg/kg/injection, schedule: Q03HX016 (ip)", "result": "165 % of control"}, {"measurement": "T/C", "setting": "dose: 16.0 mg/kg/injection, schedule: Q08DX002 (ip)", "result": "169 % of control"}, {"measurement": "T/C", "setting": "dose: 16.0 mg/kg/injection, schedule: Q## X024 (ip)", "result": "206 % of control"}, {"measurement": "T/C", "setting": "dose: 20.0 mg/kg/injection, schedule: Q01DX001 (ip)", "result": "108 % of control"}, {"measurement": "T/C", "setting": "dose: 32.0 mg/kg/injection, schedule: Q01DX001 (ip)", "result": "152 % of control"}, {"measurement": "T/C", "setting": "dose: 32.0 mg/kg/injection, schedule: Q01DX001 (oral)", "result": "103 % of control"}, {"measurement": "T/C", "setting": "dose: 32.0 mg/kg/injection, schedule: Q03HX016 (ip)", "result": "197 % of control"}, {"measurement": "T/C", "setting": "dose: 32.0 mg/kg/injection, schedule: Q08DX002 (ip)", "result": "159 % of control"}, {"measurement": "T/C", "setting": "dose: 32.0 mg/kg/injection, schedule: Q## X008 (ip)", "result": "150 % of control"}, {"measurement": "T/C", "setting": "dose: 64.0 mg/kg/injection, schedule: Q01DX001 (oral)", "result": "101 % of control"}, {"measurement": "T/C", "setting": "dose: 128.0 mg/kg/injection, schedule: Q01DX001 (oral)", "result": "101 % of control"}]}, {"smiles": "C=C/C=C/CC=C", "values": [{"measurement": "T/C", "setting": "dose: 100.0 mg/kg/injection, schedule: Q01DX001 (ip)", "result": "107 % of control"}, {"measurement": "T/C", "setting": "dose: 200.0 mg/kg/injection, schedule: Q01DX001 (ip)", "result": "107 % of control"}, {"measurement": "T/C", "setting": "dose: 400.0 mg/kg/injection, schedule: Q01DX001 (ip)", "result": "109 % of control"}]}]}
